# Publication PMC6150242, “Design, Synthesis and Anticancer Evaluation of Fangchinoline Derivatives” (Molecules : A Journal of Synthetic Chemistry and Natural …, 2017)
# Where two headings read alike, the source gives them in different places.
# Assays:
# [1] = tested on: human melanoma WM9 cell line; test: MTT in vitro cytotoxicity assay, WM9; type: cell-based; conditions: for IC50: Homo sapiens, read-out: IC50 (µM) WM9
# Method: (§1) As summarized in Table 1, five cancer cell lines, including MDA-MB-231, PC3, WM9, HEL and K562 cell lines, were induced for testing the anti-cancer activities of those derivatives. The first line anti-cancer drug, vincristine, was treated as positive control. All the test compounds were dissolved in DMSO. The preliminary structure-activity relationship of all compounds against the 5 cancer cell lines was also investigated.
# (§2) Human erythroleukemic cell lines HEL and K562, human breast cell lines MDA-MB-231, human prostate cell lines PC3 and human melanoma cell lines WM9 were cultured in RPMI (HEL and K562) or DMEM (MDA-MB-231, PC3, WM9) medium (high glucose) supplemented with 5% FBS (HyClone, GE Healthcare, Parramatta, Australia) and 1% ampicillin/streptomycin.
# (§3) Cells were cultured in 96-well plates at densities of 1 × 10^5/well. The plates were pre-incubated at 37 °C for 24 h to allow adaptation of cells prior to the addition of the test compounds. Then, compounds were added to cells in triplicate in several doses, and incubated for an additional 2 days. The 50% inhibitory concentrations (IC50) were measured for fangchinoline derivatives using MTT (diphenyltetrazolium bromide) assay.
# [2] = tested on: human leukaemia HEL cell line; test: MTT in vitro cytotoxicity assay, HEL; type: cell-based; conditions: read-out: IC50 (µM) HEL
# Method: as §1, §2, §3
# [3] = tested on: human breast cancer MDA-MB-231 cell line; test: MTT in vitro cytotoxicity assay, MDA-MB-231; type: cell-based; conditions: read-out: IC50 (µM) MDA-MB-231
# Method: as §1, §2, §3
# [4] = tested on: human leukaemia K562 cell line; test: MTT in vitro cytotoxicity assay, K562; type: cell-based; conditions: read-out: IC50 (µM) K562
# Method: as §1, §2, §3
# [5] = tested on: human prostate cancer PC3 cell line; test: MTT in vitro cytotoxicity assay, PC3; type: cell-based; conditions: read-out: IC50 (µM) PC3
# Method: as §1, §2, §3
# [6] = Toxicity on normal human liver cell line; type: cell-based; conditions: HL7702 normal liver cells; normal human liver cell line HL7702; read-out: IC50 against HL7702 cell growth
# Method: (§4) 3 fangchinoline derivatives were also tested for their toxicities on normal human liver cell line HL7702.
# as §3
# [7] = tested on: normal human liver cell line HL7702; test: Toxicity on normal human liver cell line; type: cell-based; conditions: HL7702 versus cancer cell lines
# Method: as §4, §3
# [8] = tested on: Caspase-3; test: Western blot of apoptosis indicators, Caspase-3; type: cell-based, human; conditions: WM9 cells, 2.5 µM, 24 h
# Method: (§5) Western blot analysis was induced to elucidate the effect of compound 4g on protein levels to further expatiate how compound 4g induces apoptosis in WM9 cells (Figure 3). The Bcl-xl, Bcl-2 and Survivin display repressor activities in cell death.
# (§6) The total protein was collected from WM9 cells using RIPA lysis buffer, and separated on 10% SDS Page, as described. The protein was then transferred to polyvinylidene fluoride (PVDF, 0.2 µm) membrane, and blocked by 5% BSA solution for 2 h at room temperature. The membrane was then incubated with specific primary antibodies overnight at 4 °C, followed by incubation with corresponding HRP-conjugated secondary antibodies for 2 h at room temperature. Expression of particular proteins was measured by applying ECL select substrate (Li-Cor, Lincoln, NE, USA). Polyclonal rabbit antibody for Bcl-2 was obtained from Abcam (Abcam, Cambridge, UK); Bcl-xl, Survivin, Casepase-3 and PARP antibodies from Cell Signalling Technology (CST, Danvers, MA, USA) and GAPDH from Goodhere Biotechnology (Hangzhou, Zhejiang, China).
# (§7) Figure 3 Fangchinoline derivative 4g affects the protein levels of the apoptotic genes in WM9 cell line. […] WM9 cells were treated with 2.5 μM 4g for 24 h.
# [9] = tested on: Bcl-2; test: Western blot of apoptosis indicators, Bcl-2; type: cell-based, human; conditions: WM9 cells, 2.5 µM, 24 h
# Method: as §5, §6, §7
# [10] = tested on: Survivin; test: Western blot of apoptosis indicators, Survivin; type: cell-based, human; conditions: WM9 cells, 2.5 µM, 24 h
# Method: as §5, §6, §7
# [11] = tested on: PARP; test: Western blot of apoptosis indicators, PARP; type: cell-based, human; conditions: WM9 cells, 2.5 µM, 24 h
# Method: as §5, §6, §7
# [12] = tested on: WM9 cells; test: Annexin V-FITC/PI flow cytometry apoptosis assay; type: cell-based, human; conditions: 2.5 µM, 24 h
# Method: The Annexin V-FITC-A/PI apoptosis detection kit was induced to test the further role of compound 4g in inhibiting WM9 cell death (Figure 2). Before undergoing the flow cytometry, the WM9 cells were treated with 0 and 2.5 µM compound 4g for 24 h, and then Annexin V-FITC and PI were put into use.
# For apoptosis analysis, WM9 cells were incubated with compounds or DMSO as a vehicle control for 24 h. Cells were then washed with cold PBS, stained with Annexin V-FITC and Propidium Iodide (PI) using apoptosis detection Kit (BD Biosciences, Bergen, NJ, USA).
# Figure 2 Compound 4g induced apoptosis in WM9 cells. WM9 cells were stained with Annexin V-FITC and PI by incubating at room temperature for 15 min after treated cells with 2.5 µM 4g for 24 h. Finally, apoptosis analysis was carried out by flow cytometry. TEXT PRINTED IN THE PICTURE: Y-37: WM9 24h: Q4-UL 1.2% (2.5 μM); WM9 24h: Q4-UR 8.8% (2.5 μM); WM9 24h: Q4-LL 74.2% (2.5 μM); WM9 24h: Q4-LR 15.8% (2.5 μM) DOUBTS OF THE COPYIST ABOUT THIS PICTURE: Y-37, Q4-UR: 8.8% or 6.8%; the first digit is partly hidden by plotted points / The Control plot also prints quadrant percentages (Q4-UL 0.7%, Q4-UR 0.0%, Q4-LL 98.9%, Q4-LR 0.3%). They are not listed because Control is not a substance.
# [13] = tested on: Bcl-xl; test: Western blot of apoptosis indicators, Bcl-xl; type: cell-based, human; conditions: WM9 cells, 2.5 µM, 24 h
# Method: as §5, §6, §7
# [14] = tested on: human hepatocellular carcinoma cell line PLC/PRF/5; design: method as in PMID 21418191; conditions: autophagy induction at relatively low concentrations; cited from earlier work
# [15] = tested on: human hepatocellular carcinoma cell line HepG2; design: method as in PMID 21418191; conditions: autophagy induction at relatively low concentrations; cited from earlier work
# [16] = WM9, MTT assay after 48 h of treatment, averaged from at least 3 independent experiments, variation ±10%
# [17] = MTT assay after 48 h of treatment, averaged from at least 3 independent experiments, variation ±10%
# [18] = MDA-MB-231, MTT assay after 48 h of treatment, averaged from at least 3 independent experiments, variation ±10%
# [19] = K562, MTT assay after 48 h of treatment, averaged from at least 3 independent experiments, variation ±10%
# [20] = PC-3, MTT assay after 48 h of treatment, averaged from at least 3 independent experiments, variation ±10%
Structure (SMILES),"IC50 [1, 16]","IC50 [2, 17]","IC50 [3, 18]","IC50 [4, 19]","IC50 [5, 20]",further results
"COc1ccc2cc1Oc1ccc(cc1)C[C@H]1c3cc(c(OC)cc3CCN1C)Oc1c(OCc3ccccc3)c(OC)cc3c1[C@H](C2)N(C)CC3 [Compound 1a, 7-O-Benzyl-fangchinoline]",3.44 µM,4.42 µM,5.13 µM,4.75 µM,3.65 µM,–
"COc1ccc2cc1Oc1ccc(cc1)C[C@H]1c3cc(c(OC)cc3CCN1C)Oc1c(OCC=C(C)C)c(OC)cc3c1[C@H](C2)N(C)CC3 [Compound 1b, 7-O-(3-Methylbut-1-ene)-fangchinoline]",5.56 µM,4.01 µM,4.44 µM,6.6 µM,7.22 µM,–
"C=CCOc1c(OC)cc2c3c1Oc1cc4c(cc1OC)CCN(C)[C@H]4Cc1ccc(cc1)Oc1cc(ccc1OC)C[C@@H]3N(C)CC2 [Compound 1c, 7-O-(Prop-1-ene)-fangchinoline]",3.05 µM,4.72 µM,5.04 µM,6.78 µM,4.75 µM,–
"COc1cc([N+](=O)[O-])c2cc1Oc1ccc(cc1)C[C@H]1c3cc(c(OC)cc3CCN1C)Oc1c(OCc3ccccc3)c(OC)cc3c1[C@H](C2)N(C)CC3 [Compound 2a, 7-Benzyl-14-nitro-fangchinoline]",3.04 µM,8.96 µM,8.6 µM,8.33 µM,3.69 µM,IC50 at 2 days [6]: 5.6 µM
"COc1ccc2cc1Oc1ccc(cc1)C[C@H]1c3cc(c(OC)cc3CCN1C)Oc1c(OC(C)=O)c(OC)cc3c1[C@H](C2)N(C)CC3 [Compound 3a, 7-O-Acetyl-fangchinoline]",2.65 µM,2.75 µM,6.67 µM,6.99 µM,3.01 µM,–
"COc1ccc2cc1Oc1ccc(cc1)C[C@H]1c3cc(c(OC)cc3CCN1C)Oc1c(OS(=O)(=O)c3ccc(C)cc3)c(OC)cc3c1[C@H](C2)N(C)CC3 [Compound 3b, 7-O-Tosyl-fangchinoline]",3.95 µM,2.95 µM,4.61 µM,3.85 µM,3.59 µM,–
"COc1ccc2cc1Oc1ccc(cc1)C[C@H]1c3cc(c(OC)cc3CCN1C)Oc1c(OS(=O)(=O)c3ccccc3[N+](=O)[O-])c(OC)cc3c1[C@H](C2)N(C)CC3 [Compound 3c, 7-O-(o-Nirtobenzessulfonyl)-fangchinoline]",3.58 µM,6.82 µM,8.7 µM,4.06 µM,4.76 µM,–
"COc1ccc2cc1Oc1ccc(cc1)C[C@H]1c3cc(c(OC)cc3CCN1C)Oc1c(OC(=O)c3ccco3)c(OC)cc3c1[C@H](C2)N(C)CC3 [Compound 3g, 7-O-(Furan-m-formyl)-fangchinoline]",3.13 µM,4.04 µM,6.02 µM,6.39 µM,4.33 µM,IC50 at 2 days [6]: 17.3 µM; fold lower toxicity on HL7702 than inhibition on cancer cell lines [7]: ~3 fold
"COc1ccc2cc1Oc1ccc(cc1)C[C@H]1c3cc(c(OC)cc3CCN1C)Oc1c(OC(=O)c3ccccc3)c(OC)cc3c1[C@H](C2)N(C)CC3 [Compound 3i, 7-O-Benzoyl-fangchinoline]",2.73 µM,2.04 µM,3.46 µM,2.86 µM,4.57 µM,–
"COc1cc(Br)c2cc1Oc1ccc(cc1)C[C@H]1c3cc(c(OC)cc3CCN1C)Oc1c(OC(=O)c3ccccc3)c(OC)c(Br)c3c1[C@H](C2)N(C)CC3 [Compound 4a, 7-O-Benzoyl-5,14-dibromo-fangchinoline]",2.51 µM,2.65 µM,4.12 µM,2.45 µM,4.22 µM,–
"COc1cc(Cl)c2cc1Oc1ccc(cc1)C[C@H]1c3cc(c(OC)cc3CCN1C)Oc1c(OC(=O)c3ccccc3)c(OC)c(Cl)c3c1[C@H](C2)N(C)CC3 [Compound 4b, 7-O-Benzoyl-5,14-dichloro-fangchinoline]",3.54 µM,5.11 µM,7.22 µM,3.16 µM,3.85 µM,–
"COc1cc([N+](=O)[O-])c2cc1Oc1ccc(cc1)C[C@H]1c3cc(c(OC)cc3CCN1C)Oc1c(OC(=O)c3ccccc3)c(OC)cc3c1[C@H](C2)N(C)CC3 [Compound 4g, 7-O-Benzoyl-14-nitro-fangchinoline]",1.07 µM,1.98 µM,2.92 µM,2.09 µM,2.03 µM,times more active than first stage derivative 3i on WM9 ([1]; WM9 IC50 ratio versus 3i): 2.5 times; times more active than fangchinoline on WM9 ([1]; WM9 IC50 ratio versus fangchinoline): 12.2 times; times more active than vincristine on WM9 ([1]; WM9 IC50 ratio versus vincristine): 9.8 times; Pro-Caspase-3 / Cleaved-Caspase-3 (Western blot) [8]: activation of executioner from Pro-Caspase-3 to Cleaved-Caspase-3; Bcl-2 expression (Western blot) [9]: inhibited; IC50 at 2 days [6]: 5 µM; fold lower toxicity on HL7702 than inhibition on cancer cell lines [7]: ~5 fold; Survivin expression (Western blot) [10]: inhibited; full-length PARP level (Western blot) [11]: down-regulation of full-length PARP; WM9 cells in the early apoptosis state ([12]; control 0.0%): 8.8%; WM9 cells in the late apoptosis state ([12]; control 0.3%): 15.8%; Bcl-xl expression (Western blot) [13]: inhibited
COc1ccc2cc1Oc1ccc(cc1)C[C@H]1c3cc(c(OC)cc3CCN1C)Oc1c(O)c(OC)cc3c1[C@H](C2)N(C)CC3 [Fangchinoline],–,–,–,–,–,"IC50 ([1]; WM9, 48 h): 13.1 µM; IC50 [14]: ~5 µM; IC50 ([2]; 48 h): 8.95 µM; IC50 ([3]; MDA-MB-231, 48 h): 12.3 µM; IC50 [15]: ~5 µM; IC50 ([4]; K562, 48 h): 10.3 µM; IC50 ([5]; PC-3, 48 h): 11.1 µM"
"CC[C@]1(O)C[C@H]2CN(CCc3c([nH]c4ccccc34)[C@@](C(=O)OC)(c3cc4c(cc3OC)N(C=O)[C@H]3[C@@](O)(C(=O)OC)[C@H](OC(C)=O)[C@]5(CC)C=CCN6CC[C@]43[C@@H]65)C2)C1 [Vincristine, reference compound]",10.6 µM,6.38 µM,13.1 µM,5.62 µM,5.36 µM,–
